The results in this text go back to US8877967B2, “Compositions and methods for inhibition of cathepsins” (OXiGENE, Inc., priority 2012, dated 2014).

Format in all cases: biochemical
The target of experiment [1] is Human liver Cathepsin L (Homo sapiens (Human), UniProt P07711). Nature of the experiment: Cathepsin L inhibition, fluorometric Z-F-R-AMC assay. The settings on record: 1 nM cathepsin L, 50 μM Z-F-R-AMC, pH 5.5, 5 min preincubation, 25° C. The protocol:
Human liver Cathepsin L (Sigma) was preincubated with test compounds at various concentrations for 5 minutes at 25° C. The assay was initiated by addition of substrate Z-Phe-Arg-aminomethylcoumarin (“Z-F-R-AMC” Bacchem) and the final assay conditions were 1 nM cathepsin L, 50 μM Z-F-R-AMC, 100 mM sodium acetate pH 5.5, 1 mM EDTA (Omnipure), 3 mM DTT (EMD), 0.01% BRIJ 35 (Sigma), and 2.0% DMSO (Acros). Test compounds were serially diluted with DMSO and water to include a final concentration range of 10 μM to 10 pM. The reaction was monitored fluorometrically for 5 minutes at 25° C. using black 96-well Corning 3686 assay microplates with a Thermo Fluoroskan Ascent FL microplate reader at excitation and emission filter wavelengths of 355 nm and 460 nm, respectively. Data were analyzed to determine IC50 values utilizing GraphPad Prism 4.03 software with a minimum of a triplicate on the same microplate.

The target of experiment [2] is Cathepsin K (activated recombinant human procathepsin K) (Homo sapiens (Human), UniProt P43235). Nature of the experiment: Cathepsin K inhibition, fluorometric Z-F-R-AMC assay. The settings on record: 1.5 nM cathepsin K, 50 μM Z-F-R-AMC, pH 5.5, 5 min preincubation, 25° C. As for the experimental part: Recombinant human procathepsin K was obtained from Enzo Life Sciences. Activation of the proenzyme was performed in 32.5 mM sodium acetate pH 3.5, EDTA 1 mM, NaCl 500 mM, human procathepsin K 5.5 μM, at room temperature. Activation times were optimized and varied between 35 and 150 minutes. Cathepsin K was preincubated with test compounds at various concentrations for 5 minutes at 25° C. The assay was initiated by addition of substrate Z-Phe-Arg-aminomethylcoumarin (“Z-F-R-AMC” Bacchem) and the final assay conditions were 1.5 nM cathepsin K, 50 μM Z-F-R-AMC, 150 mM sodium acetate pH 5.5, 2.5 mM EDTA (Omnipure), 2.5 mM DTT (EMD), 0.01% BRIJ 35 (Sigma), and 4.0% DMSO (Acros). Test compounds were serially diluted with DMSO and water to include a final concentration range of 10 μM to 10 pM. The reaction was monitored fluorometrically for 5 minutes at 25° C. using black 96-well Corning 3686 assay microplates with a Thermo Fluoroskan Ascent FL microplate reader at excitation and emission filter wavelengths of 355 nm and 460 nm, respectively. Data were analyzed to determine IC50 values utilizing GraphPad Prism 4.03 software with a minimum of a triplicate on the same microplate.
Cathepsin K (activated recombinant human procathepsin K), sequence (P43235 115-329): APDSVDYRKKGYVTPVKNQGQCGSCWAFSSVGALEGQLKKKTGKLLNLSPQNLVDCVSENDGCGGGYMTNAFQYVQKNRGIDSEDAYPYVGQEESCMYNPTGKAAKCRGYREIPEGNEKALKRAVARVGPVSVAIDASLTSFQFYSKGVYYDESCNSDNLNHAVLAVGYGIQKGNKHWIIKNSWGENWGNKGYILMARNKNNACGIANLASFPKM

Experiment [3] addresses Human liver Cathepsin B (Homo sapiens (Human), UniProt P07858). Nature of the experiment: Cathepsin B inhibition, fluorometric Z-R-R-AMC assay. The settings on record: 1.1 nM cathepsin B, 60 μM Z-R-R-AMC, pH 6.0, 5 min preincubation, 37° C. The protocol:
Human liver Cathepsin B (Calbiochem) was pre-incubated with test compound at various concentrations for 5 minutes at 37° C. The assay was initiated by addition of substrate Z-Arg-Arg-aminomethylcoumarin (“Z-R-R-AMC” Bacchem) and the final assay conditions were 1.1 nM cathepsin B, 60 μM Z-R-R-AMC, 126 mM sodium potassium phosphate pH 6.0 (Fisher), 0.3 mM EDTA (Omnipure), 2.7 mM DTT (Omnipure), 0.004% BRIJ 35 (Sigma), and 2.0% DMSO (Acros) in a final volume of 200 μL. Test compounds were serially diluted with DMSO and 0.01% BRIJ 35 to include a final concentration range of 20 μM to 10 pM. The reaction was monitored fluorometrically for 5 minutes at 37° C. using black 96-well Corning 3686 assay microplates with a Thermo Fluoroskan Ascent FL microplate reader at excitation and emission filter wavelengths of 355 nm and 460 nm, respectively. Data were analyzed to determine IC50 values utilizing GraphPad Prism 4.03 software with a minimum of a triplicate on the same microplate.

Human liver Cathepsin L, sequence (P07711 114-333): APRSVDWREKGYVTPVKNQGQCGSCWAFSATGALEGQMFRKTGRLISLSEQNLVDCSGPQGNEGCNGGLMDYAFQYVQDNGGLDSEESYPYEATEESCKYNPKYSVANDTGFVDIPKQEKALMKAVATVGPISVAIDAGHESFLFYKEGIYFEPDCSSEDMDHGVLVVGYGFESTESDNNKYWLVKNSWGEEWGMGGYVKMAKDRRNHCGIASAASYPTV

For the compound `Cc1cccc(C(=O)c2cccc(C(=NNC(N)=S)c3cccc(C)c3)c2)c1` [Compound 9, 1-(3-methylbenzoyl),3-(3-methylbenzoyl)benzene thiosemicarbazone], the 50% inhibitory concentration (IC50) came to 7820 nM in experiment [1] and 1030 nM in experiment [2].
As for `NC(=S)NN=C(c1ccccc1)c1cccc(C(O)c2ccccc2)c1` (stereo not drawn) [Compound 6, 3-Benzoyl benzhydrol thiosemicarbazone], the half-maximal inhibitory concentration (IC50) was 23.8 nM in experiment [1] and over 10000 nM in experiment [3].
Consider `NC(=S)NN=C(c1ccccc1)c1cc(C(=O)c2ccccc2)cc(C(=O)c2ccccc2)c1` [Compound 25, 1,3,5-Tribenzoyl benzene thiosemicarbazone], for which the IC50 in experiment [1] was determined as 25 nM; in experiment [2], 2800 nM.
With `CC(C)Oc1ccc(C(=NNC(N)=S)c2cccc(C(=NNC(N)=S)c3ccc(OC(C)C)cc3)c2)cc1` [Compound 23, 1,3-bis-(4-isopropoxybenzoyl)benzene dithiosemicarbazone], the IC50 in experiment [1] and in experiment [2] was over 10000 nM each time.
As to `NC(=S)NN=C(c1ccccc1)c1cccc(C(=O)c2ccccc2)c1` [Compound 3, 3-benzoyl benzophenone thiosemicarbazone], the IC50 was 10.5 nM in experiment [1], 17.4 nM in experiment [2] and over 10000 nM in experiment [3].
For the compound `CC(C)Oc1ccc(C(=O)c2cccc(C(=NNC(N)=S)c3ccc(OC(C)C)cc3)c2)cc1` [Compound 22, 1,3-bis-(4-isopropoxybenzoyl)benzene thiosemicarbazone], the IC50 in experiment [1] and in experiment [3] was over 10000 nM throughout.
As for `COc1ccc(C(=NNC(N)=S)c2cccc(C(=NNC(N)=S)c3ccc(OC)cc3)c2)cc1` [Compound 33, 1,3-bis-(4-methoxybenzoyl)benzene dithiosemicarbazone], the IC50 in experiment [1] was 587 nM; in experiment [2], 2100 nM; in experiment [3], over 10000 nM.
For the compound `NC(=S)NN=C(c1cc(Br)cc(C(=O)c2ccccc2F)c1)c1ccccc1F` [Compound 11, 1,3-bis(2-fluoro-benzoyl)-5-bromobenzene thiosemicarbazone], the concentration for half-maximal inhibition (IC50) is 8.12 nM in experiment [1] and over 10000 nM in experiment [3].
On to `NC(=S)NN=C(c1ccc(Br)cc1)c1cccc(C(=O)c2ccc(Br)cc2)c1` [Compound 24, 1,3-bis-(4-bromobenzoyl)benzene thiosemicarbazone], for which the IC50 in experiment [1], in experiment [2] and in experiment [3] was over 10000 nM throughout.
For `NC(=S)NN=C(c1ccc(F)cc1)c1cccc(C(=O)c2ccc(F)cc2)c1` [Compound 13, 1,3-bis-(4-fluorobenzoyl)benzene thiosemicarbazone], the IC50 in experiment [1] was 24.3 nM; in experiment [2], 8500 nM; in experiment [3], over 10000 nM.
